Experiments:
[1] = test system: A2.1/K^b-Tg mice; experiment: Peptide priming of A2.1/K^b-Tg mice, lytic activity of peptide-specific CTL; format: in vivo; set-up: Lytic Activity by Peptide-Specific CTL After Priming of A2.1/K^b-Tg Mice [Specific ^51Cr release (%)]: concentration or dose not given beside the values
[2] = target: HLA-A2.1 (Homo sapiens, UniProt P04439, D140Y/D185E/D98H/E176V/E277Q/G131W/G231S/I119V/I121R/I166T/I218V/L300P/L318F/N151K/N90K/P208A/P217A/Q86G/Q94H/R138H/R169H/T345S); experiment: Competition assay of peptide binding to HLA-A2.1 (inhibition of M1 58-66 binding, clone 12 lysis of EA2 targets)
[3] = test system: peptide-pulsed T2 targets; format: cell-based, human
[4] = test system: JY; experiment: Cytotoxicity assay, killing of tumors (Table 7); format: cell-based, human; settings: JY, Lymphoma, A2 +, Her-2 −
Description: (§1) One hundred and six (106) target cells were incubated at 37° C. with […] of sodium ^51Cr chromate for 90 minutes in the presence or absence of specific peptide. Cells were washed three times and resuspended in 5% RPMI. For the assay, 104 ^51Cr-labeled target cells were incubated with different concentrations of effector cells in a final volume of […] in U-bottomed 96-well plates. Supernatants were removed after 4-7 hrs at 37° C., and the percent specific lysis was determined by the following formula: […]
(§2) Tumor cells were preincubated for 24 hours prior to the assay in media supplemented with γ-interferon (γ-IFN, 20 ng/ml) plus tumor necrosis factor-α (TNF-α, 3 ng/ml). It is known that such pretreatment of tumor cells increases the expression of MHC I and adhesion molecules such as ICAM I on the surface of the cell thus enhancing their sensitivity to lysis by CTL. (See, e.g., Fisk, et al., Lympho. & Cylokine Res. 13: 125-131 (1994); Fady, et al., Cancer Immunol. Immunother. 37: 329-336 (1993).)

[5] = test system: U2-OS; experiment: Cytotoxicity assay, killing of tumors (Table 7); format: cell-based, human; settings: U2-OS, Osteosarcoma, A2 +, Her-2 +
Description: as §1, §2

[6] = test system: SW480; experiment: Cytotoxicity assay, killing of tumors (Table 7); format: cell-based, human; settings: SW480, Colon, A2 +, Her-2 +
Description: as §1, §2

[7] = test system: NCI.H1355; experiment: Cytotoxicity assay, killing of tumors (Table 7); format: cell-based, human; settings: NCI.H1355, Lung, A2 +
Description: as §1, §2

[8] = test system: BT549; experiment: Cytotoxicity assay, killing of tumors (Table 7); format: cell-based, human; settings: BT549, Breast, A2 +
Description: as §1, §2

[9] = test system: MDA.M8231; experiment: Cytotoxicity assay, killing of tumors (Table 7); format: cell-based, human; settings: MDA.M8231, Breast, A2 +
Description: as §1, §2

[10] = test system: OVCAR-5; experiment: Cytotoxicity assay, killing of tumors (Table 7); format: cell-based, human; settings: OVCAR-5, Ovarian, A2 +, Her-2 +
Description: as §1, §2

[11] = test system: SKMEL-5; experiment: Cytotoxicity assay, killing of tumors (Table 7); format: cell-based, human; settings: SKMEL-5, Melanoma, A2 +, Her-2 +
Description: as §1, §2

[12] = test system: MDA.MB435; experiment: Cytotoxicity assay, killing of tumors (Table 7); format: cell-based, human; settings: MDA.MB435, Breast, A2 −, Her-2 +
Description: as §1, §2

[13] = test system: T98G; experiment: Cytotoxicity assay, killing of tumors (Table 7); format: cell-based, human; settings: T98G, Glioblastoma, A2 +, Her-2 +
Description: as §1, §2

[14] = test system: ST486; experiment: Cytotoxicity assay, killing of tumors (Table 7); format: cell-based, human; settings: ST486, Lymphoma, A2 +, Her-2 −
Description: as §1, §2

[15] = test system: SV80; experiment: Cytotoxicity assay, killing of tumors (Table 7); format: cell-based, human; settings: SV80, Fibroblast, A2 +, Her-2 −
Description: as §1, §2

[16] = test system: Hep-G2; experiment: Cytotoxicity assay, killing of tumors (Table 7); format: cell-based, human; settings: Hep-G2, Hepatoma, A2 +, Her-2 +
Description: as §1, §2

[17] = test system: MALME-3M; experiment: Cytotoxicity assay, killing of tumors (Table 7); format: cell-based, human; settings: MALME-3M, Melanoma, A2 +, Her-2 +
Description: as §1, §2

[18] = test system: U87G; experiment: Cytotoxicity assay, killing of tumors (Table 7); format: cell-based, human; settings: U87G, Glioblastoma, A2 +, Her-2 −
Description: as §1, §2

[19] = test system: LG-2; experiment: Cytotoxicity assay, killing of tumors (Table 7); format: cell-based, human; settings: LG-2, EBV-trans., A2 +, Her-2 −
Description: as §1, §2

[20] = test system: SAOS.175; experiment: Cytotoxicity assay, killing of tumors (Table 7); format: cell-based, human; settings: SAOS.175, Osteosarcoma, A2 +, Her-2 +
Description: as §1, §2

[21] = test system: CASKI; experiment: Cytotoxicity assay, killing of tumors (Table 7); format: cell-based, human; settings: CASKI, Cervix, A2 +, Her-2 +
Description: as §1, §2

[22] = test system: MCF-7; experiment: Cytotoxicity assay, killing of tumors (Table 7); format: cell-based, human; settings: MCF-7, Breast, A2 +, Her-2 +
Description: as §1, §2

[23] = + CYT (γ-IFN plus TNF-α, 24 hours)

With STPPPGTRV [hu-wt-p53 149-157] the “Lytic Activity by Peptide-Specific CTL After Priming of A2.1/K^b-Tg Mice [Specific ^51Cr release (%)]” value ([1]; E:T ratio of 60:1, peptide-pulsed T2A2/K^b targets, highest of at least three individual mice) was 91%, the “A2.1/K^b-restricted peptide-specific CTL response of A2.1/K^b-Tg mice (in words)” value ([1]; mouse, in vivo) was “detectable” and the “A2.1-binding activity / affinity for the presenting MHC class I molecule (in words)” value [2] was “intermediate affinity”. For the same sequence, the “peptide concentration required for equivalent lysis of T2 targets by A2 vs. A2.1/K^b derived CTL (fold less)” value [3] was 3 fold.

In the case of VMAGVGSPYV [Peptide H7], the “Killing of Tumors Expressing Her-2/neu (percent specific lysis)” value (“Killing … (percent specific lysis)” below) [4, 23] is reported as 2%, the “Killing … (percent specific lysis)” value ([4]; no cytokines) is reported as 4% and the “Killing … (percent specific lysis)” value [5, 23] is reported as 62%. The “Killing … (percent specific lysis)” value ([5]; no cytokines) was 30%, the “Killing … (percent specific lysis)” value [6, 23] was 17% and the “Killing … (percent specific lysis)” value ([6]; no cytokines) was 2%. For the same sequence, the “Killing … (percent specific lysis)” value [7, 23] was 62%, the “Killing … (percent specific lysis)” value ([7]; no cytokines) was 13% and the “Killing … (percent specific lysis)” value [8, 23] was 36%. For the same sequence, the “Killing … (percent specific lysis)” value ([8]; no cytokines) was 2%, the “Killing … (percent specific lysis)” value [9, 23] was 89% and the “Killing … (percent specific lysis)” value ([9]; no cytokines) was 26%. For the same sequence, the “Killing … (percent specific lysis)” value [10, 23] was 23%, the “Killing … (percent specific lysis)” value ([10]; no cytokines) was 13% and the “Killing … (percent specific lysis)” value [11, 23] was 40%. For the same sequence, the “Killing … (percent specific lysis)” value ([11]; no cytokines) was 16%, the “Killing … (percent specific lysis)” value [12, 23] was 1% and the “Killing … (percent specific lysis)” value ([12]; no cytokines) was 1%. The “Killing … (percent specific lysis)” value [13, 23] was 93%, the “Killing … (percent specific lysis)” value ([13]; no cytokines) was 29% and the “Killing … (percent specific lysis)” value [14, 23] was 8%. The “Killing … (percent specific lysis)” value ([14]; no cytokines) was 5%, the “Killing … (percent specific lysis)” value [15, 23] was 2% and the “Killing … (percent specific lysis)” value ([15]; no cytokines) was 2%. The “Killing … (percent specific lysis)” value [16, 23] was 29%, the “Killing … (percent specific lysis)” value ([16]; no cytokines) was 4% and the “Killing … (percent specific lysis)” value [17, 23] was 14%. For the same sequence, the “Killing … (percent specific lysis)” value ([17]; no cytokines) was 4%, the “Killing … (percent specific lysis)” value [18, 23] was 1% and the “Killing … (percent specific lysis)” value ([18]; no cytokines) was 1%. The “Killing … (percent specific lysis)” value [19, 23] was 3%, the “Killing … (percent specific lysis)” value ([19]; no cytokines) was 1% and the “Killing … (percent specific lysis)” value [20, 23] was 35%. The “Killing … (percent specific lysis)” value ([20]; no cytokines) was 27%, the “Killing … (percent specific lysis)” value [21, 23] was 20% and the “Killing … (percent specific lysis)” value ([21]; no cytokines) was 9%. The “Killing … (percent specific lysis)” value [22, 23] was 40% and the “Killing … (percent specific lysis)” value ([22]; no cytokines) was 7%.

Source: patent US7402314B2, “In vivo activation of tumor-specific cytotoxic T cells” (The Scripps Research Institute, priority 1995, dated 2008)
